In data set [1] the test system is Gerbillinae. Put plainly: Antipsychotic activity gerbils assessed as reversal of senktide-induced locomotor activity at 30 mg/kg, po administered before senktide challenge. It is filed as functional, organism-based. Details: dose 30 mg/kg.
Data set [2] can be described thus: Lipophilicity, log D of the compound. Conditions: octanol/water. It is filed as physicochemical.
A short description of data set [3]: Ratio of drug level in brain to plasma in gerbils at 30 mg/kg, po. The data set is classed as ADME, organism-based. Details: dose 30 mg/kg, route oral. The conditions noted are these: gerbillinae, read-out: BPR.
A short description of data set [4]: Aqueous solubility of the compound. It is filed as physicochemical.
Data set [5] deals with Gerbillinae. Put plainly: Antipsychotic activity gerbils assessed as reversal of senktide-induced locomotor activity at 100 mg/kg, po administered before senktide challenge. It is filed as functional, organism-based. Details: dose 100 mg/kg.
For data set [6], the target named is Substance-P receptor (Homo sapiens, UniProt P25103). Nature of the data set: Displacement of [3H]substance P from human neurokinin NK1 receptor expressed in CHO cell. It is filed as cell-based. For orientation: Displacement assays read how much labelled ligand stays bound in the presence of the test substance.
For data set [7], the target named is T1, Neuromedin-K receptor (Homo sapiens, UniProt P29371).
T1 sequence (P29371 whole entry): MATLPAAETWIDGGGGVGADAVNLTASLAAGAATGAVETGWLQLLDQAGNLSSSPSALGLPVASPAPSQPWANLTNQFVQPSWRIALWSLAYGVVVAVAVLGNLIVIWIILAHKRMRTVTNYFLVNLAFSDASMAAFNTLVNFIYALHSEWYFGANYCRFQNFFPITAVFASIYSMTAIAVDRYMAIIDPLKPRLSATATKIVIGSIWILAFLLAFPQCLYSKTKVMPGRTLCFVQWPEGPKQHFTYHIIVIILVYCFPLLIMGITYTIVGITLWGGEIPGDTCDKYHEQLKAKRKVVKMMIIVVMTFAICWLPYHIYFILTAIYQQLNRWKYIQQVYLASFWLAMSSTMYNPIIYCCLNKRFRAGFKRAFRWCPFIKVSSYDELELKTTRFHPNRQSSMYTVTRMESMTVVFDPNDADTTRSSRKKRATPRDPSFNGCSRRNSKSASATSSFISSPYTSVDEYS
Nature of the data set: Displacement of [3H]SR142801 from human neurokinin NK3 receptor expressed in HEK293-EBNA cells. The conditions noted are these: for pKi: read-out: Ki; for Ki: hek293-ebna. It is filed as cell-based.

The logD is the decadic logarithm of the distribution of all forms, ionised or not, between an organic phase and buffer at a given pH. Higher therefore signals higher lipophilicity. A word on the solubility: it is the dissolved amount per volume that the medium holds. High values mean a readily soluble substance, low ones a poorly soluble substance. As usually defined, the pKi is the negative decadic logarithm of the Ki, by convention in mol/L.

pKi: −log10 of the molar value. ≈ marks a conversion by molar mass, not a printed value. Calls of active or inactive are those of the source. The calls are words filed in the database; no cut-off is given here.

Chain of Substance-P receptor (P25103 whole entry): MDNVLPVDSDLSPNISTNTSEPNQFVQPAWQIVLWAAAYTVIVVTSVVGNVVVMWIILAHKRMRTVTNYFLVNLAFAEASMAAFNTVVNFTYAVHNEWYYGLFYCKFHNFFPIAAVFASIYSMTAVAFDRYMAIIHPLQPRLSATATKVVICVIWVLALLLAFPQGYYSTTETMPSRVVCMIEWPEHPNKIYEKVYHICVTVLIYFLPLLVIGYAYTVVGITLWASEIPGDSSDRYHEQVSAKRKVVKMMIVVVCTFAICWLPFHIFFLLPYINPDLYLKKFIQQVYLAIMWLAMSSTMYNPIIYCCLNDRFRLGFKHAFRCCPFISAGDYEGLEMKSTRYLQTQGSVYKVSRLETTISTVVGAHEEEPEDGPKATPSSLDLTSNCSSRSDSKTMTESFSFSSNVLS

`CN(C)CCN1CCN(C(=O)N2C[C@H](c3ccc(Cl)c(Cl)c3)[C@@H](N(C)Cc3ccc(C(F)(F)F)c(F)c3)C2)CC1`: the result in data set [1] was Active. Also, the log distribution coefficient (logD) in data set [2] was 2.9. For the same molecule, the Kp in data set [3] was found to be 1.6. In data set [4], this molecule gave a solubility of 495 µg/mL (≈ 819 µM).
As for `CC(=O)N(C)C1(c2ccccc2)CCN(CCC[C@]2(c3ccc(Cl)c(Cl)c3)CCCN(C(=O)c3ccccc3)C2)CC1`, in data set [5], the outcome was Active.
As for `CN(C(=O)C(C)(C)c1cc(C(F)(F)F)cc(C(F)(F)F)c1)[C@H]1CN(C(=O)N(CCO)CCO)C[C@@H]1c1ccc(F)cc1` (racemic), the negative-log Ki (pKi) in data set [6] was 8.96; in data set [7] it was 6.72.
Take `CC(=O)N1CCN(C(=O)N2C[C@H](c3ccc(F)cc3)[C@@H](N(C)C(=O)C(C)(C)c3cc(C(F)(F)F)cc(C(F)(F)F)c3)C2)CC1` (racemic): the pKi was 8.85 in data set [6] and 6.43 in data set [7].
With `CN(C(=O)C(C)(C)c1cc(C(F)(F)F)cc(C(F)(F)F)c1)[C@H]1CN(C(=O)N2CCN(S(C)(=O)=O)CC2)C[C@@H]1c1ccc(F)cc1` (racemic), the pKi is 8.68 in data set [6] and 6.78 in data set [7].
Take `CN(C(=O)C(C)(C)c1cc(C(F)(F)F)cc(C(F)(F)F)c1)[C@H]1CN(C(=O)N2CCN(S(C)(=O)=O)CC2)C[C@@H]1c1ccccc1` (racemic): the pKi in data set [7] is 7.00.
With `CN(C(=O)Cc1cc(C(F)(F)F)cc(C(F)(F)F)c1)[C@H]1CN(C(=O)N2CCN(S(C)(=O)=O)CC2)C[C@@H]1c1ccccc1` (racemic), in data set [7], the Ki result is “Not Active”.
Turning to `CN(CC(C)(C)c1cc(C(F)(F)F)cc(C(F)(F)F)c1)[C@H]1CN(C(=O)N2CCN(S(C)(=O)=O)CC2)C[C@@H]1c1ccccc1` (racemic), the Ki result in data set [7] is “Not Active”.
In turn, `CN(C(=O)C(C)(C)c1cc(C(F)(F)F)cc(C(F)(F)F)c1)[C@H]1CNC[C@@H]1c1ccc(F)cc1` (racemic) gave a pKi in data set [6] of 9.05. Further, in data set [7], the Ki result was “Not Active”.
Consider `CN(C(=O)C(C)(C)c1cc(C(F)(F)F)cc(C(F)(F)F)c1)[C@H]1CN(C(=O)NCCO)C[C@@H]1c1ccc(F)cc1` (racemic), for which the values for the pKi in data set [6] and in data set [7] were 9.22 and 6.53, respectively.
`CN(C(=O)C(C)(C)c1cc(C(F)(F)F)cc(C(F)(F)F)c1)[C@H]1CN(Cc2ccccc2)C[C@@H]1c1ccc(F)cc1` (racemic): the Ki entry in data set [7] is reported as “Not Active”.
Regarding `CN(CCc1cc(C(F)(F)F)cc(C(F)(F)F)c1)[C@H]1CN(C(=O)N2CCN(S(C)(=O)=O)CC2)C[C@@H]1c1ccccc1` (racemic), in data set [7], the Ki entry is reported as “Not Active”.
In the case of `CN(C(=O)c1cc(C(F)(F)F)cc(C(F)(F)F)c1)[C@H]1CN(C(=O)N2CCN(S(C)(=O)=O)CC2)C[C@@H]1c1ccccc1` (racemic), in data set [7], the Ki result is reported as “Not Active”.
The same measure, in the same setting: next, `CS(=O)(=O)N1CCN(C(=O)N2C[C@H](NC(=O)c3cc(C(F)(F)F)cc(C(F)(F)F)c3)[C@@H](c3ccccc3)C2)CC1` (racemic): “Not Active”.
Turning to `CN(Cc1cc(C(F)(F)F)cc(C(F)(F)F)c1)[C@H]1CN(C(=O)N2CCN(S(C)(=O)=O)CC2)C[C@@H]1c1ccccc1` (racemic), the pKi in data set [7] was 5.89.
Molecule `CN(Cc1ccc(C(F)(F)F)c(F)c1)[C@H]1CN(C(=O)N2CCN(S(C)(=O)=O)CC2)C[C@@H]1c1ccc(Cl)c(Cl)c1` (racemic) registered a log distribution coefficient (logD) in data set [2] above 4. In data set [4], this molecule showed a solubility below 1 µg/mL.

The record behind these values is ChEMBL document CHEMBL1268836, “Rational design of novel pyrrolidine derivatives as orally active neurokinin-3 receptor antagonists” (Bioorg Med Chem Lett, 2010).
